Measurements as given in ChEMBL document CHEMBL1201862, “PubChem BioAssay data set” (2004).
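Tested at 5 concentrations; 48 h exposure; 96-well plates; endpoints linearly interpolated, else capped at highest concentration. Abbreviation: GI50, concentration required for 50% inhibition of growth.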 Active and inactive are the calls of the source. Rule as the data show it: active = GI50 up to about 1.1 µM and inactive = higher.

Assays:
Assay in all cases: inhibition of tumour cell growth, NCI panel, 48 h
A498 = test system: A498
SNB-75 = test system: SNB-75
SW-620 = test system: SW-620
MDA-MB-231 = test system: MDA-MB-231
PC-3 = test system: PC-3
HL-60 = test system: HL-60
CAKI-1 = test system: CAKI-1
SF-295 = test system: SF-295
U-251 = test system: U-251
T47D = test system: T47D
OVCAR-8 = test system: OVCAR-8
SK-MEL-28 = test system: SK-MEL-28
MOLT-4 = test system: MOLT-4
SK-MEL-2 = test system: SK-MEL-2
UACC-257 = test system: UACC-257
OVCAR-5 = test system: OVCAR-5
HT-29 = test system: HT-29
CCRF-CEM = test system: CCRF-CEM
MDA-N = test system: MDA-N
SK-OV-3 = test system: SK-OV-3

Row | Compound | GI50 (A498) | GI50 (SNB-75) | GI50 (SW-620) | GI50 (MDA-MB-231) | GI50 (PC-3) | GI50 (HL-60) | GI50 (CAKI-1) | GI50 (SF-295) | GI50 (U-251) | GI50 (T47D) | GI50 (OVCAR-8) | GI50 (SK-MEL-28) | GI50 (MOLT-4) | GI50 (SK-MEL-2) | GI50 (UACC-257) | GI50 (OVCAR-5) | GI50 (HT-29) | GI50 (CCRF-CEM) | GI50 (MDA-N) | GI50 (SK-OV-3)
1 | N#Cc1c(N)nc(S)c(C#N)c1-c1ccccc1 | > 100 µM (inactive) | 58.3 µM (inactive) | > 100 µM (inactive) | > 100 µM (inactive) | > 100 µM (inactive) | > 100 µM (inactive) | 88.1 µM (inactive) | > 100 µM (inactive) | > 100 µM (inactive) | > 100 µM (inactive) | > 100 µM (inactive) | > 100 µM (inactive) | > 100 µM (inactive) | 82.4 µM (inactive) | > 100 µM (inactive) | > 100 µM (inactive) | > 100 µM (inactive) | > 100 µM (inactive) | > 100 µM (inactive) | 
2 | O=C(O)Cc1ccc([N+](=O)[O-])cc1[N+](=O)[O-] | > 100 µM (inactive) | > 100 µM (inactive) | > 100 µM (inactive) | > 100 µM (inactive) | > 100 µM (inactive) | > 100 µM (inactive) | > 100 µM (inactive) | > 100 µM (inactive) | > 100 µM (inactive) | > 100 µM (inactive) | > 100 µM (inactive) | > 100 µM (inactive) | > 100 µM (inactive) | > 100 µM (inactive) | > 100 µM (inactive) | > 100 µM (inactive) | > 100 µM (inactive) | > 100 µM (inactive) | > 100 µM (inactive) | > 100 µM (inactive)
3 | COC1/C=C/C(C)C(C(C)C(OC)C(C)CCC(=O)C(C)C(CC(=O)O)OC)OC(=O)/C=C/C=C(\C)CC(OC)CC2=CC(=O)O[C@H](C2)C(C)C(OC)CC(OC)/C=C/C(C)C(OC)C1 (some centres undefined) | 0.24 µM (active) | 0.00746 µM (active) | 0.348 µM (active) | 0.45 µM (active) | 0.38 µM (active) | 0.118 µM (active) | 0.0621 µM (active) | 0.258 µM (active) | 0.195 µM (active) | 1.16 µM (inactive) | 1.14 µM (inactive) | 0.101 µM (active) | 1.46 µM (inactive) | 0.265 µM (active) | 0.449 µM (active) | 1.02 µM (active) | 0.916 µM (active) | 0.191 µM (active) | 0.841 µM (active) | 0.695 µM (active)
4 | CSC(=O)/C=C1\SS/C(=C\C(=O)SC)S1 | 7.89 µM (inactive) | 2.58 µM (inactive) | 1.81 µM (inactive) | 2.07 µM (inactive) | 3.09 µM (inactive) | 1.12 µM (active) | 1.39 µM (inactive) | 5.36 µM (inactive) | 2.14 µM (inactive) | 5.83 µM (inactive) | 3.44 µM (inactive) | 2.42 µM (inactive) | 1.77 µM (inactive) | 2.15 µM (inactive) | 3.06 µM (inactive) | 3.98 µM (inactive) | 2.47 µM (inactive) | 1.88 µM (inactive) | 2.51 µM (inactive) | 
5 | CC(=O)c1c(-c2ccc(Cl)cc2)c(C#N)c(=S)n(C2OC(CO)C(O)C(O)C2O)c1C (centres undefined) | 50.7 µM (inactive) | > 100 µM (inactive) |  | 37 µM (inactive) | 31.5 µM (inactive) | 26.9 µM (inactive) |  | 54.6 µM (inactive) | 36.8 µM (inactive) | 49.3 µM (inactive) | > 100 µM (inactive) | 34.1 µM (inactive) | 21.6 µM (inactive) | 28.2 µM (inactive) | 82.4 µM (inactive) | > 100 µM (inactive) | 30.1 µM (inactive) | 25.9 µM (inactive) | 30.8 µM (inactive) | 82.8 µM (inactive)
6 | Brc1ccccc1/C=N\C12CC3CC(CC(C3)C1)C2 | > 100 µM (inactive) | 38.2 µM (inactive) | 3.9 µM (inactive) | > 100 µM (inactive) | 43.2 µM (inactive) | 0.879 µM (active) | 24.8 µM (inactive) | 63.8 µM (inactive) | 12.9 µM (inactive) | > 100 µM (inactive) | > 100 µM (inactive) | > 100 µM (inactive) | 4.75 µM (inactive) | > 81.3 µM (inactive) | > 79.4 µM (inactive) | > 100 µM (inactive) | 38.4 µM (inactive) | 4.54 µM (inactive) | 3.38 µM (inactive) | > 100 µM (inactive)
7 | O=C1/C(=C\Oc2ccc(F)cc2)N2CCC1CC2 | > 100 µM (inactive) | 24.8 µM (inactive) |  | 80.5 µM (inactive) | > 100 µM (inactive) | 35.2 µM (inactive) | 84.9 µM (inactive) | > 100 µM (inactive) | 77.1 µM (inactive) | 54.6 µM (inactive) | 85.1 µM (inactive) | 87.1 µM (inactive) | 34.1 µM (inactive) | 61.2 µM (inactive) | 23.7 µM (inactive) | > 100 µM (inactive) | 60.1 µM (inactive) | 34.4 µM (inactive) | 47.2 µM (inactive) | > 100 µM (inactive)
8 | Clc1ccc(-c2ccc(-c3nnc(CCc4nnc(-c5ccc(-c6ccc(Cl)cc6)o5)o4)o3)o2)cc1 | 30.5 µM (inactive) |  | > 95.7 µM (inactive) | 28.3 µM (inactive) | > 100 µM (inactive) | 4.81 µM (inactive) | > 100 µM (inactive) | 31.5 µM (inactive) | 17.1 µM (inactive) | 75.7 µM (inactive) | > 91 µM (inactive) | > 100 µM (inactive) | 3.81 µM (inactive) | 23.4 µM (inactive) | > 100 µM (inactive) | > 100 µM (inactive) | > 100 µM (inactive) | 2.89 µM (inactive) | > 100 µM (inactive) | > 45 µM (inactive)
9 | CC(=O)Oc1ccc2c3c1[C@H]1O[C@H]1c1cccc(c1-3)[C@@H]1O[C@H]21 | 11.9 µM (inactive) | 4.13 µM (inactive) | 2.09 µM (inactive) | 12.8 µM (inactive) | 13.5 µM (inactive) | 1.82 µM (inactive) | 3.22 µM (inactive) | 10 µM (inactive) | 4.99 µM (inactive) | 2.09 µM (inactive) | 4.22 µM (inactive) | 8.15 µM (inactive) | 18.5 µM (inactive) | 9.55 µM (inactive) | 8.22 µM (inactive) | 14.8 µM (inactive) | 7.18 µM (inactive) |  | 6.87 µM (inactive) | 14.6 µM (inactive)
10 | CN1CCN(CC(=O)N2CCCn3c2nc2ccccc2c3=O)CC1 | > 100 µM (inactive) | > 100 µM (inactive) | > 100 µM (inactive) | > 100 µM (inactive) | > 100 µM (inactive) | > 100 µM (inactive) | > 100 µM (inactive) | > 100 µM (inactive) | > 100 µM (inactive) | > 100 µM (inactive) | > 100 µM (inactive) |  | > 100 µM (inactive) | > 100 µM (inactive) | > 100 µM (inactive) | > 100 µM (inactive) | > 100 µM (inactive) | > 100 µM (inactive) | > 100 µM (inactive) | > 100 µM (inactive)
11 | CN(C)C1C(CO)OC(n2cnc3c(N)ncnc32)C1O (centres undefined) | > 100 µM (inactive) | > 100 µM (inactive) | > 100 µM (inactive) | > 100 µM (inactive) | > 100 µM (inactive) | > 100 µM (inactive) | > 100 µM (inactive) | > 100 µM (inactive) | > 100 µM (inactive) | > 100 µM (inactive) | > 100 µM (inactive) | > 100 µM (inactive) | > 100 µM (inactive) | > 100 µM (inactive) | > 100 µM (inactive) | > 100 µM (inactive) | > 100 µM (inactive) | > 100 µM (inactive) | > 100 µM (inactive) | > 100 µM (inactive)
12 | CC(=O)c1ccc2c3c1O[C@H]1c4[nH]c5ccccc5c4C[C@@]4(O)[C@@H](C2)N(CC2CC2)CC[C@]314 | 0.333 µM (active) |  | 0.179 µM (active) | 12.8 µM (inactive) | 10.1 µM (inactive) | 16.1 µM (inactive) | 20 µM (inactive) | 15.6 µM (inactive) | 12.2 µM (inactive) | 19.9 µM (inactive) | 13.6 µM (inactive) | 8.17 µM (inactive) | 17.1 µM (inactive) | 16.6 µM (inactive) | 16.8 µM (inactive) | 13.2 µM (inactive) | 4.13 µM (inactive) | 2.06 µM (inactive) | 17.7 µM (inactive) | 20.1 µM (inactive)
13 | Cc1ccc(S(=O)(=O)NC(CCC(=O)NNc2ccccc2)C(=O)NNc2ccccc2)cc1 (centres undefined) | > 100 µM (inactive) | > 100 µM (inactive) | 6.65 µM (inactive) | > 100 µM (inactive) | 4.14 µM (inactive) | > 100 µM (inactive) | > 100 µM (inactive) | 10.4 µM (inactive) | 3.08 µM (inactive) | 5.47 µM (inactive) | 6.43 µM (inactive) |  | 3.85 µM (inactive) | 13.5 µM (inactive) | 15.1 µM (inactive) | 46.8 µM (inactive) | 13.2 µM (inactive) | 51.4 µM (inactive) | 17.2 µM (inactive) | > 100 µM (inactive)
14 | CC(C)[C@H]1NC(=O)[C@H]2N=C(O[C@@H]2C)[C@@H]2CCCN2C(=O)[C@H](Cc2ccccc2)NC(=O)[C@@H]2CSC(=N2)[C@@H](Cc2ccccc2)NC(=O)[C@@H]2CSC1=N2 | > 100 µM (inactive) |  | 86.5 µM (inactive) | > 100 µM (inactive) | 37.5 µM (inactive) | > 100 µM (inactive) | > 100 µM (inactive) | > 100 µM (inactive) | > 100 µM (inactive) | > 100 µM (inactive) | > 100 µM (inactive) | 75.3 µM (inactive) | 75.7 µM (inactive) | 85.9 µM (inactive) | > 100 µM (inactive) | > 100 µM (inactive) | 84.5 µM (inactive) | > 100 µM (inactive) | > 100 µM (inactive) | > 100 µM (inactive)
